Data set [1] can be described thus: in vitro. Format: cell-based. As to conditions: human, hff cells. As for the experimental part: (§1) Human foreskin fibroblasts (HFF) are grown in a nutrient medium consisting of Eagle's minimal essential medium (EMEM) to which 10% fetal calf serum has been added.
(§2) The cell vitality is measured in an HFF cell culture using an MTT assay. The result is expressed as the TC50 value, which is the concentration at which 50% of the cells tested are still vital. In HFF cells, it is 435 μg/ml for the substances according to the invention.

The test system of data set [2] is cytomegaloviruses (CMV laboratory strain AD169). The data set can be described thus: ELISA of production of CMV late antigens in HFF cells. Format: cell-based. As to conditions: for therapeutic index: quotient TC50/IC50, HFF cells. As for the experimental part: Antiviral activity: cells and viruses employed
as §1
The CMV laboratory strain AD169 is used. The viruses are propagated in EMEM nutrient medium to which 4% fetal calf serum has been added (maintenance medium). The virus titer is established by determining so-called immediate early antigen forming units (IEFUs) which are formed in the maintenance medium (Gerna et al. (1992), Antiviral Res. Vol. 19: 333-345).
The antiviral effect of the substances on the propagation of cytomegaloviruses is determined by different parameters:
In an ELISA (enzyme-linked immunosorbent assay), the production of CMV late antigens is determined. […] The substances according to the invention have an IC50 value of 4 μg/ml±1 μg/ml.

For data set [3] the following is noted: cited from earlier work.
Data set [4] has as its system phospholipase D. As to conditions: cited from earlier work.
The subject of data set [5] is T cells. As to conditions: in vitro; cited from earlier work.
Data set [6] deals with phospholipase C. As to conditions: cited from earlier work.
The subject of data set [7] is B cells. As to conditions: in vitro; cited from earlier work.
For data set [8], the system named is antibody production. As to conditions: intraperitoneal, mice; cited from earlier work.
For data set [9], the system named is lymphocyte proliferation. Kind of data set: phytohemagglutinin stimulated lymphocyte proliferation ([3H]-thymidine). The data set is classed as cell-based. As for the experimental part: For a proliferation assay, lymphocyte cultures were started in mixed lymphocyte cultures (MLC), or with 1% phytohemagglutinin (PHA), in a total volume of 200 μl of culture medium. 18 to 20 hours before the measurement, 0.1 μCi methyl-[^3 H]-thymidine (NEN, Germany) was added. Radiolabeled DNA was harvested on filter membranes (Schleicher & Schull, Germany). The radioactivity was quantified with a scintillation counter (Zinsser, Germany). The sample PBL pertains to peripheral blood lymphocytes as a control.

Data set [10] concerns DTH (delayed type hypersensitivity) reaction. As to conditions: intraperitoneal, mice; cited from earlier work.
The test system of data set [11] is Human foreskin fibroblasts (HFF). The data set can be described thus: in vitro. As to conditions: hff cells. Format: cell-based. As for the experimental part: as §1, §2
In data set [12] the test system is hepatitis viruses. As to conditions: literature, cell cultures; cited from earlier work.
In data set [13] the test system is Varicella zoster viruses. As to conditions: literature; cited from earlier work.
In data set [14] the test system is human cytomegaloviruses. As to conditions: literature; cited from earlier work.
Data set [15] has as its system Herpes simplex viruses. As to conditions: literature; cited from earlier work.
Data set [16] has as its system Epstein-Barr viruses. As to conditions: literature; cited from earlier work.
In data set [17] the test system is viral DNA polymerases. As to conditions: cited from earlier work.
Data set [18] concerns viral reverse transcriptases. As to conditions: cited from earlier work.
For data set [19] the following is noted: literature; cited from earlier work.
For data set [20] the following is noted: mouse, in vivo; cited from earlier work.
The mark [21] stands for this setting: Human betaherpesvirus 5, AD169, production of CMV late antigens, ELISA, HFF cells, read-out: inhibitory concentration IC50.
Where [22] appears, read: production of CMV late antigens, ELISA, HFF cells.

≈ marks a conversion by molar mass, not a printed value. Entries after “also recorded” stand apart in the source; their conditions may differ. Where two headings read alike, the source gives them in different places. Bounds are passed on as bounds.

For `O=C(O)C[C@@H](NCCN[C@H](CC(=O)O)C(=O)O)C(=O)O` [(R,R)-N,N'-ethylenediamine disuccinate], the CC50 in [1] was no less than 100 mg/L. Also, the IC50 in data set [2] (setting [21]) stood at 41 mg/L. The molecule further returned a therapeutic index in data set [2] of no less than 2.2.
As for `O=C(O)C[C@H](NCCN[C@H](CC(=O)O)C(=O)O)C(=O)O` [(R,S)-N,N'-ethylenediamine disuccinate], the CC50 in [1] was no less than 100 mg/L. Besides, the IC50 in data set [2] (setting [21]) is 46 mg/L. The molecule also came in with a therapeutic index in data set [2] of no less than 2.2.
Regarding `O=C(O)CC[C@H](NCCN[C@@H](CCC(=O)O)C(=O)O)C(=O)O` [(S,S)-N,N'-ethylenediamine diglutamate], the CC50 in [1] was no less than 100 mg/L. The IC50 in [2] (setting [21]) was no less than 100 mg/L.
In turn, `O=C(O)C[C@H](NCCN[C@@H](CC(=O)O)C(=O)O)C(=O)O` [(S,S)-N,N'-ethylenediamine disuccinate] had a CC50 in data set [1] of 435 mg/L. Also, the toxicity in mice result in data set [3] is on record as “relatively low”. Moreover, in [4], the “inhibition of phospholipase D” value was “inhibits”. Further, in data set [5], the “blastogenesis of T cells” value is “suppressed”. Further, the “inhibition of phospholipase C” value in [6] is on record as “inhibits”. In addition, in [2] (Human betaherpesvirus 5, AD169, HFF, activity against cytomegaloviruses, read-out: IC50), the IC50 was determined as 4 mg/L. The molecule further returned a therapeutic index in data set [2] of 109. For the same molecule, the “blastogenesis of B cells” value in data set [7] is listed as “suppressed”. Moreover, the antibody production result in data set [8] was “suppressed”. The immunosuppressive activity entry in data set [9] is “inhibition of phytohemagglutinin stimulated lymphocyte proliferation”. Besides, in [10], the “DTH (delayed type hypersensitivity) reaction” value is listed as “suppressed”.
For the molecule `CC(CN[C@@H](CCC(=O)O)C(=O)O)N[C@@H](CCC(=O)O)C(=O)O` (stereo partly drawn) [(S,S)-N,N'-propylenediamine diglutamate], in [11], the “toxic concentration TC50” value was no less than 100 mg/L. In addition, the “inhibitory concentration IC50” value in data set [2] (setting [22]) was no less than 100 mg/L.
On to `CC(CN[C@@H](CC(=O)O)C(=O)O)N[C@@H](CC(=O)O)C(=O)O` (stereo partly drawn) [(S,S)-N,N'-propylenediamine disuccinate], for which, in [11], the “toxic concentration TC50” value was no less than 100 mg/L. Further, in [2] (setting [22]), the “inhibitory concentration IC50” value is no less than 100 mg/L.
In the case of `O=C(O)P(=O)(O)O` [Foscarnet], the “antiviral activity, hepatitis viruses” value in [12] is “selective activity”. Further, in data set [13], the “antiviral activity, Varicella zoster viruses” value is given as “selective activity”. In data set [14], the “antiviral activity, cytomegaloviruses” value is reported as “virostatic effect” and the resistance of cytomegaloviruses result is on record as “more resistant”. Also, the “antiviral activity, Herpes simplex viruses” value in data set [15] was “selective activity”. Besides, in data set [16], the “antiviral activity, Epstein-Barr viruses” value is reported as “selective activity”. Also, the “inhibition of viral DNA polymerases” value in [17] is reported as “inhibition”. Further, the “inhibition of viral reverse transcriptases” value in [18] is “inhibition”.
In the case of `Nc1nc(O)c2ncn(COC(CO)CO)c2n1` [Ganciclovir], in [13], the “antiviral activity, Varicella zoster viruses” value is given as “effective”. Also, the “toxicity / side effects” value in data set [19] is recorded as “high side-effect level; also recorded: leads to neutropenia”. The tumor development entry in data set [20] is listed as “observed to develop tumors”. Besides, in data set [14], the resistance of cytomegaloviruses result was “more resistant”. The “antiviral activity, Herpes simplex viruses” value in [15] is “effective”. The “antiviral activity, Epstein-Barr viruses” value in data set [16] is listed as “effective”.
For `CC(=O)N(O)CCCCCNC(=O)CCC(=O)N(O)CCCCCNC(=O)CCC(=O)N(O)CCCCCN` [desferrioxamine], the CC50 in [1] came out at 12 mg/L (≈ 21.4 µM). Moreover, in [2] (setting [21]), the IC50 worked out at 4.1 mg/L (≈ 7.31 µM). In addition, in [2], the therapeutic index was 3. Also, the “antiviral activity, Varicella zoster viruses” value in data set [13] is “successfully used”. Further, the “toxicity / side effects” value in data set [19] is given as “low toxicity”. Further, in data set [14], the “antiviral activity, cytomegaloviruses” value was “successfully used”. Moreover, in data set [15], the “antiviral activity, Herpes simplex viruses” value was “successfully used”. The “antiviral activity, Epstein-Barr viruses” value in [16] was “successfully used”.
Molecule `O=C(O)CN(CCN(CC(=O)O)CC(=O)O)CCN(CC(=O)O)CC(=O)O` [diethylenetriaminepentaacetic acid] had a CC50 in [1] of 123 mg/L (≈ 313 µM). In [2] (setting [21]), the IC50 stood at 4 mg/L (≈ 10.2 µM). Besides, the therapeutic index in [2] was 31.
As to (R,R)-N,N'-propylenediamine disuccinate, the “toxic concentration TC50” value in data set [11] was no less than 100 mg/L. Moreover, in data set [2] (setting [22]), the “inhibitory concentration IC50” value is no less than 100 mg/L.

As a reminder, the CC50 is the concentration at which the toxic effect on the cells reaches its halfway point. A high value points to lower toxicity to the cells.

The values are drawn from US6140367A, “Use of ethylene diamine disuccinate for preparing a medicament with antiviral properties” (priority 1996, dated 2000).
